# Measurements as given in US9714247B2, “Multiple kinase pathway inhibitors” (Mannkind Corporation, priority 2012, dated 2017).
# Where two headings read alike, the source gives them in different places.
# How the values were obtained:
# Src [1] = target: T1, Src (Homo sapiens (Human), UniProt P12931); conditions: read-out: Src IC50
# DoHH2 = test: Apoptosis by flow cytometry (Annexin V / 7AAD); format: cell-based, human; conditions: for Percent Apoptosis DOHH2: Table 5, 6 hours
# Excerpt: Activation of Tec family kinases including BTK, and/or Src kinase family members, regulates cell survival and cell death in normal B cells, lymphomas, and solid tumors. Apoptosis is a programmed cell death characterized by specific changes in cell morphology. […] Staurosporine was used as a positive control for apoptosis. […] Table 6 illustrates that several amino naphthyridinones induce significant apoptosis in DoHH2 cells.
# PC3 = test: Apoptosis by flow cytometry (Annexin V / 7AAD); format: cell-based; conditions: Table 5, 6 hours
# [2] = test system: PLCγ2 phosphorylation in Ramos cells; test: PLCγ2 phosphorylation by Western blotting; format: cell-based, human; conditions: anti-IgM/H2O2 stimulation, Tyr1217
# Protocol: Ramos cells were cultured in RPMI 1640 media with 10% FBS and were starved overnight (18 h) in 1% FBS containing media and on the next day pretreated with inhibitor for 2 h before stimulation. Cells were stimulated to induce BTK network dependent signal transduction pathways using mouse anti-human IgM (final concentration 10 ug/ml; Invitrogen) antibodies and 3.3 mM H2O2 mixture for 2 minutes followed by F(Ab) fragment that cross-linked the anti-IgM antibody (final concentration 10 ug/ml), and 3.3 mM H2O2 for 8 minutes. Cell lysates were prepared in lysis buffer containing protease and phosphatase inhibitors, quantified using the BCA protein assay kit (Pierce) and used for Western blotting. Antibodies specifically targeted to the molecules of interest, PLCγ2 phosphorylated at Tyr1217 and total PLCγ2, (Cell Signaling Technology) were used in a standard Western blotting procedure.
# Phosphorylation of PLCγ2 at Tyr1217 along with Tyr753, Tyr759 and Tyr1197 is correlated with increased PLCγ2 activity. The readout for BTK network signaling was inhibition of phosphorylation of PLCγ2 induced by the anti-IgM treatment.
# [3] = test system: PLCγ2 phosphorylation in Ramos cells; test: PLCγ2 phosphorylation by flow cytometry; format: cell-based, human
# Summary of the method: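 Ramos cells starved 18 h in 1% FBS, pretreated with inhibitor 2 h, then stimulated with anti-IgM (10 ug/ml final) plus 3.3 mM H2O2 for 2 min, then cross-linking F(ab) (10 ug/ml) plus H2O2 for 8 min. Fixed, permeabilized cells stained with PE anti-phospho-PLCγ2 (Tyr1217 or Tyr759), dead cells gated out; ED50 from geometric mean fluorescence over four inhibitor concentrations.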
# [4] = test system: PLC-γ2 phosphorylation in DoHH-2; test: PLCγ2 phosphorylation by flow cytometry; format: cell-based, human; conditions: DoHH-2, increasing concentrations (data not shown)
# Protocol: PLCγ2 phosphorylation was also assessed by flow cytometry. Cells were similarly stimulated and following stimulation, Cytofix buffer (Becton Dickinson) was added, cells were centrifuged and the cell pellets incubated on ice with Phosflow perm buffer III (Becton Dickinson). These cell pellets were washed with Perm/Wash buffer (Becton Dickinson); resuspended and labeled for flow cytometry analysis in a staining mixture containing Perm/Wash buffer and PE-labeled anti-phosphoPCLγa2 (Tyr1217) antibody (Becton Dickinson). The samples were washed with Perm/Wash buffer and analyzed on a FACS Calibur flow cytometer using CellQuest Pro software. As mentioned for the Western blot experiments, phosphorylation of PLCγ2 at Tyr1217 along with Tyr753, Tyr759 and Tyr1197 is correlated with increased PLCγ2 activity. The readout for BTK network signaling was inhibition of phosphorylation of PLCγ2. Cells were gated to exclude dead or dying cells. Fluorescence signals from the antibody staining were plotted in logarithmic units and data was analyzed using Cellquest Pro software. […] An ED50 was calculated based on the geometric mean of fluorescence intensity observed for treatment for four different concentrations of the inhibitors (see Table 7 and FIG. 6). […] Thus treatment with amino naphthyridinones inhibits PLCγ2 phosphorylation consistent with inhibition of BTK and/or LYN activity.
# [5] = test system: phosphorylation of SFKs in Ramos cells; test: SFK phosphorylation (Tyr 416) by Western blotting; format: cell-based, human; conditions: pretreated 2 hours
# Protocol: Ramos cell lysates from stimulated and unstimulated cells were analyzed for the levels of phosphorylated SRC family members. As described in Example 82 (above), cells were pretreated for 2 hours with an amino naphthyridinones and then stimulated with anti-IgM antibody and H2O2, protein lysates were prepared, quantified and used for Western blotting. A commercially available antibody that detects Src phosphorylated at Tyr 416 (Cell Signalling) and may cross-react with other Src family members such as Lyn, Fyn, Lck, Yes and Hck when phosphorylated at equivalent sites was used for Western blot analysis. The molecular weights of SFK family members are quite similar (in the 55-60 kDa range) and different family members cannot be resolved by the conditions used for the Western blot. […] The procedure can be similarly adapted for flow cytometric analysis as with the PLC-γ2 assay in Example 82. Ramos cells were incubated with Compound 1 for 2 hrs in RPMI media with 5% FBS prior to stimulation stimulated with H2O2/anti-IgM/F(Ab) for 10 minutes. Cells were evaluated by FACS analysis using anti-pSRC antibody and FITC-conjugated goat anti-rabbit secondary antibody following overnight storage at 4° C. in BD perm/wash buffer.
# [6] = test system: phosphorylation of SFKs in Ramos cells; test: SFK phosphorylation (Tyr 416) by flow cytometry; format: cell-based, human
# Summary of the method: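 Ramos cells pretreated with compound 2 hrs in RPMI with 5% FBS, then stimulated 10 minutes with H2O2/anti-IgM. Phospho-Tyr 416 SFK detected by flow cytometry with an antibody that may cross-react across Src family members, plus fluorescent secondary antibody.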
# DoHH-2 tumor xenograft = format: in vivo
# DoHH2 cells = conditions: treated 24 hours
# Src [7] = target: T1, Src; test: biochemical
# T1 sequence (P12931 whole entry, looked up): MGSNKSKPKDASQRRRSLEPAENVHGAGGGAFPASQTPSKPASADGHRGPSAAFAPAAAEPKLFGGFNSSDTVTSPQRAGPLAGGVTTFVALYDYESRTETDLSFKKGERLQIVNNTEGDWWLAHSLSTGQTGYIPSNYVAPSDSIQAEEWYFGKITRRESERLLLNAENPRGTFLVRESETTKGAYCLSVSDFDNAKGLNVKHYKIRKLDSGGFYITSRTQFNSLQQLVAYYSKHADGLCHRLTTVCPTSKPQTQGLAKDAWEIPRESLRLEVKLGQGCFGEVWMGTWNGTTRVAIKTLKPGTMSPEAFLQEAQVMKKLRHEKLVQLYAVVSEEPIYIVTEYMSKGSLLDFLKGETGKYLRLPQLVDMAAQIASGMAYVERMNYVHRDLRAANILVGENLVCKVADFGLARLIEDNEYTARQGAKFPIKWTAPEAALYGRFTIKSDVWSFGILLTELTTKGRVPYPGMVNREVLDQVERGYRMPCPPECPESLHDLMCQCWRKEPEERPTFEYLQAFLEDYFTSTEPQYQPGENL
smiles,measurement,setting,value
"CCn1c(=O)c(-c2ccccc2)cc2cnc(Nc3ncc(CCN(C)C)s3)cc21 [Compound 2, 7-[5-(2-Dimethylamino-ethyl)-thiazol-2-ylamino]-1-ethyl-3-phenyl-1H-[1,6]naphthyridin-2-one]",IC50,Src [1],> 5000 nM
"CCN(CC)CCOc1ccc(Nc2cc3c(cn2)cc(-c2ccccc2)c(=O)n3CC)nc1 [Compound 1, 7-[5-(2-Diethylamino-ethoxy)-pyridin-2-ylamino]-1-ethyl-3-phenyl-1H-[1, 6]naphthyridin-2-one]",Percent Apoptosis DOHH2,DoHH2; 1 uM,4.43%
same,Percent Apoptosis DOHH2,DoHH2; 2 uM,29.84%
same,Percent Apoptosis DOHH2,DoHH2; 5 uM,21.76%
same,Percent Apoptosis DOHH2,DoHH2; 10 uM,37.52%
same,Percent Apoptosis at 2 uM,"DoHH2; Table 6, DOHH2, 2 uM",26.2%
same,Percent Apoptosis at 5 uM,"DoHH2; Table 6, DOHH2, 5 uM",32.58%
same,Percent Apoptosis PC3,PC3; 1 uM,7.86%
same,Percent Apoptosis PC3,PC3; 2 uM,6.5%
same,Percent Apoptosis PC3,PC3; 5 uM,11.74%
same,Percent Apoptosis PC3,PC3; 10 uM,6.35%
same,Inhibition of PLCγ2 phosphorylation (Western blot),[2],dose dependent decrease in PLCγ2 phosphorylation
same,inhibition at 0.3 µM,"[3]; Homo sapiens, 0.3 uM, flow cytometry, anti-phospho PLCγ2 (Tyr759), read-out: pPLCγ % inhibition",63%
same,EC50,"[3]; Homo sapiens, flow cytometry, anti-phospho PLCγ2 (Tyr1217), four concentrations, read-out: Inhibition of phosphorylation of PLC-γ2 EC50",380 nM
same,Inhibition of PLC-γ2 phosphorylation (flow cytometry),[3]; increasing concentrations,dose dependent decrease in PLC-γ2 phosphorylation
same,Inhibition of PLC-γ2 phosphorylation (flow cytometry),[4],dose dependent decrease in PLC-γ2 phosphorylation
same,Inhibition of phosphorylation of SFKs (Western blot),[5],dose-dependent decrease of phosphorylation of SFKs
same,inhibition at 0.3 µM,"[6]; Homo sapiens, 0.3 uM, flow cytometry, SFK phosphorylated at Tyr 416, read-out: pSRC % inhibition",31%
same,Inhibition of SFK phosphorylation (flow cytometry),[6]; incubated 2 hrs,dose-dependent inhibition of SFK phosphorylation
same,Effect on tumor growth compared with 70 mg/kg PCI-32765,DoHH-2 tumor xenograft; 62.5 mg/kg,more marked effect
same,Mortality,"DoHH-2 tumor xenograft; 62.5 mg/kg group, day 17",2 animals
same,Estimated maximal tolerated dose,"DoHH-2 tumor xenograft; IP, SCID mice",~62.5 mg/kg/day
same,Tumor growth inhibition,"DoHH-2 tumor xenograft; highest dose 62.5 mg/kg/day IP, day 15, 19 and 21",significantly inhibited tumor growth
same,Effect on Cell Cycle,DoHH2 cells,G1 Arrest
same,IC50,Src [7],100 to 1000 nM
